Results reported in patent US12227500B2, “Substituted pyrrolo[2,3-b]pyridines for suppressing toxic endoplasmic reticulum stress” (THE TRUSTEES OF COLUMBIA UNIVERSITY IN THE CITY OF NEW YORK, priority 2018, dated 2025).
Like-named read-outs stand apart in the source and are kept apart here.

Key:
[1] = target: T1, MLK3/MAP3K11 (Homo sapiens, UniProt Q16584); assay: Radiolabeled ATP kinase assay (Reaction Biology Corp.), MLK3; format: biochemical; settings: [Cmpd] 0.1 μM; 10 μM ATP
T1 construct: purchased Reaction Biology Corp
T1 sequence (Q16584 whole entry): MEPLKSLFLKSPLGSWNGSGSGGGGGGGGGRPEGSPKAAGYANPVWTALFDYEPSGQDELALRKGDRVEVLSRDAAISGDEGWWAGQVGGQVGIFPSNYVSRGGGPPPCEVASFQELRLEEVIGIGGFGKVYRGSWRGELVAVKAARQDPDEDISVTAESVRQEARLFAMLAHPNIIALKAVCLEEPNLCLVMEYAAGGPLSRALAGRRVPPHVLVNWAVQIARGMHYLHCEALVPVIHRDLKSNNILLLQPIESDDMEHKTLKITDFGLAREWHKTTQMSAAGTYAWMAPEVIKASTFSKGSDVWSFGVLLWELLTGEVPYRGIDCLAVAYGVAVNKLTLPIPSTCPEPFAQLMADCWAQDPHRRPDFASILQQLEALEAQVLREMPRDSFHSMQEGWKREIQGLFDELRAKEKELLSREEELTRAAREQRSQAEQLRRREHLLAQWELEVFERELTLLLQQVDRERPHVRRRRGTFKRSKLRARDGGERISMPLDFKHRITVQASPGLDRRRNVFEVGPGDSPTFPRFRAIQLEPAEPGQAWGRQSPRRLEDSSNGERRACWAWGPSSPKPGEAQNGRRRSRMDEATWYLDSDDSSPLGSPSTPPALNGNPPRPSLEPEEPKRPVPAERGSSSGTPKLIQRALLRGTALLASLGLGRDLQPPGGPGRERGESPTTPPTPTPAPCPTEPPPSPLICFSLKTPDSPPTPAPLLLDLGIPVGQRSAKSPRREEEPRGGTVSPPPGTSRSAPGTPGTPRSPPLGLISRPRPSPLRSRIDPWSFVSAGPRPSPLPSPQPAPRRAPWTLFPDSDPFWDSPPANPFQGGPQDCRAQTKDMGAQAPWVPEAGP
Procedure: (§1) Meanwhile, the same analogs were analyzed in a radiolabeled ATP assay (10 μM ATP; Reaction Biology Corp.) to compare the extent to which they could inhibit the activity of HGK, MLK1, or MLK3 in a cell-free environment (Table S3 and S4).

[2] = test system: human ES motor neurons carrying the ALS-causing SOD1^A4V mutation; assay: cells; format: cell-based; settings: Homo sapiens, Neuron, 72 h, 72 h; for EC50 / Emax: CPA 33 μM; for EC50: read-out: EC50; for viability at 1 µM: CPA (33 μM) + compound (1 μM), read-out: Motor Neuron Survival, % untreated; for Emax: read-out: Emax (MN survival % untreated)
Procedure: Next, survival assays were performed with all the analogs at once to generate a low-variability dataset. All compounds were evaluated at concentrations ranging from 0.1-3.0 μM (five-point dilution) in three technical replicates and two biological replicates.

[3] = target: HGK/MAP4K4 (Homo sapiens, UniProt O95819); assay: Radiolabeled ATP kinase assay (Reaction Biology Corp.), HGK; format: biochemical; design: purchased Reaction Biology Corp; settings: 10 μM ATP, read-out: % Enzyme Activity (relative to DMSO controls), HGK/MAP4K4, Data 1; for remaining activity at 0.025 µM: [Cmpd] 0.025 μM; for remaining activity at 0.1 µM: [Cmpd] 0.1 μM
HGK/MAP4K4, sequence (O95819 whole entry): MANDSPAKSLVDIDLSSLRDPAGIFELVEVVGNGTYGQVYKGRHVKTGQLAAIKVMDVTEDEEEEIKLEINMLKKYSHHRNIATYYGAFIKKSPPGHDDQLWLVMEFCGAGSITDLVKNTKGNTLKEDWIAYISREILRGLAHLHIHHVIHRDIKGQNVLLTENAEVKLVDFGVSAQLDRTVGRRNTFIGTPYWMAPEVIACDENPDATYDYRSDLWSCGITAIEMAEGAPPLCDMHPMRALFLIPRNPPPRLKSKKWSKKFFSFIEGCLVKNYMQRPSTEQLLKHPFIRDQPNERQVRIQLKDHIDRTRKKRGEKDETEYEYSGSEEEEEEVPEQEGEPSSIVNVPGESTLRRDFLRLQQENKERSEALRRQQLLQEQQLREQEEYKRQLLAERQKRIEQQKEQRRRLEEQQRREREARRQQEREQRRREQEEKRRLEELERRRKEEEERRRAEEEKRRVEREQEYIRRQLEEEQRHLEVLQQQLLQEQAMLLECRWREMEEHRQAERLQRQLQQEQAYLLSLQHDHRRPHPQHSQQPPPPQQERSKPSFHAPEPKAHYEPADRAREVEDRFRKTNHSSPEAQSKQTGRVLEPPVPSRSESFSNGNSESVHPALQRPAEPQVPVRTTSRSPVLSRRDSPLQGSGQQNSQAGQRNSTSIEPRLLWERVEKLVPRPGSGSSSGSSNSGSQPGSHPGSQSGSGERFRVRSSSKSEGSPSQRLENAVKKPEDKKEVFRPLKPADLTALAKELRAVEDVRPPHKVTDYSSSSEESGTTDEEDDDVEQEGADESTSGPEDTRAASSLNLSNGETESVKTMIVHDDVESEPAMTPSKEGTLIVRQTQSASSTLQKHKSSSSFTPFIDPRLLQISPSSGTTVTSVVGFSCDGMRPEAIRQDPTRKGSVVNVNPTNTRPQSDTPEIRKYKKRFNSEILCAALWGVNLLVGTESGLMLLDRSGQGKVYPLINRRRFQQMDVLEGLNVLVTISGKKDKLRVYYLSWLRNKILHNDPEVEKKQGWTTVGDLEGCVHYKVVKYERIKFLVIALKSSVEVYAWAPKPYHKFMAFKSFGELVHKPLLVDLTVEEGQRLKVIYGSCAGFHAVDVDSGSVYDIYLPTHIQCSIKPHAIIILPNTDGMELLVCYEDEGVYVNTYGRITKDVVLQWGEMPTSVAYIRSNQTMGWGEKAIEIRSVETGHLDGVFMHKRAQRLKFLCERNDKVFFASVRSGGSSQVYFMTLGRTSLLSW
Procedure: as §1

[4] = target: T2, MLK1/MAP3K9 (Homo sapiens, UniProt P80192); assay: Radiolabeled ATP kinase assay (Reaction Biology Corp.), MLK1; format: biochemical; settings: [Cmpd] 0.1 μM, 10 μM ATP
T2 construct: purchased Reaction Biology Corp
T2 sequence (P80192 whole entry): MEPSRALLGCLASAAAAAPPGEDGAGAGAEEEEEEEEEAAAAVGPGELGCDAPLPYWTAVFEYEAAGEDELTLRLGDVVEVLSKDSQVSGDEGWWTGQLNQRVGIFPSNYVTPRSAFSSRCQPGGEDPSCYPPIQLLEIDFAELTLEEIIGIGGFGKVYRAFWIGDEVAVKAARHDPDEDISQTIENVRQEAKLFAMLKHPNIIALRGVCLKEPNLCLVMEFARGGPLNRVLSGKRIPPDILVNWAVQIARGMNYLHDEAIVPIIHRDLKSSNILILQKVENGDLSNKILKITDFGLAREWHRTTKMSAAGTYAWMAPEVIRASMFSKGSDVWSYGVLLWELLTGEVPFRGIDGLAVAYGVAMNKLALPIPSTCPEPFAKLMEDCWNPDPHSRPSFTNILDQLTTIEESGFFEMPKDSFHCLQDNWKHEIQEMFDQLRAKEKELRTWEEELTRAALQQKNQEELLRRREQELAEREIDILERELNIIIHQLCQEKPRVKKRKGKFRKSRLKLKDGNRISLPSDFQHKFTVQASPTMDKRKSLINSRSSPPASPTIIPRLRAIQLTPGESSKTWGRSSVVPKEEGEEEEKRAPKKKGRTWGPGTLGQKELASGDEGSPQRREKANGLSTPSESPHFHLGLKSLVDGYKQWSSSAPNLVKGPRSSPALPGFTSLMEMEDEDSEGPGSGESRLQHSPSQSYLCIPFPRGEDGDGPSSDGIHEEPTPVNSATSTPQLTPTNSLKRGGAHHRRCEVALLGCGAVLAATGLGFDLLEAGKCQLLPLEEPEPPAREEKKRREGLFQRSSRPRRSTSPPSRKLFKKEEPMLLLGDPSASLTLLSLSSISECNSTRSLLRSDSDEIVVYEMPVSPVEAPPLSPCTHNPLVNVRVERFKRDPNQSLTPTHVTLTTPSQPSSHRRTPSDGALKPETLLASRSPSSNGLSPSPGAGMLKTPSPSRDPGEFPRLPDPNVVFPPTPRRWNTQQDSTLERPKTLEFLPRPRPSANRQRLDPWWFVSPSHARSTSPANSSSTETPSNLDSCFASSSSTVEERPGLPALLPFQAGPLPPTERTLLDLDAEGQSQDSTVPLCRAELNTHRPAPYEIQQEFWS
Procedure: as §1

[5] = read-out: % Enzyme Activity Remaining (relative to DMSO controls), MLK1/MAP3K9, Data 1
[6] = read-out: % Enzyme Activity Remaining (relative to DMSO controls), MLK1/MAP3K9, Data 2

Row | SMILES | % Enzyme Activity Remaining (relative to DMSO controls), MLK3/MAP3K11, Data 1 [1] [%] | % Enzyme Activity Remaining (relative to DMSO controls), MLK3/MAP3K11, Data 2 [1] [%] | EC50 [2] [nM] | viability at 1 µM [2] [%] | Emax [2] [%] | remaining activity at 0.025 µM [3] [%] | remaining activity at 0.1 µM [3] [%] | remaining activity at 0.1 µM [4, 5] [%] | remaining activity at 0.1 µM [4, 6] [%]
1 | CN1CCN(Cc2ccc(-c3cnc4[nH]cc(-c5ccc(Cl)cc5Cl)c4c3)cc2)CC1 [Compound 7ae, 3-(2,4-Dichlorophenyl)-5-(4-((4-methylpiperazin-1-yl)methyl)phenyl)-1H-pyrrolo[2,3-b]pyridine] | 84.17 | 86.93 | 533 | 32 | 32 | 67.9 | 42.7 | 92.5 | 91.8
2 | CN1CCN(Cc2ccc(-c3cnc4[nH]cc(-c5csc6ccccc56)c4c3)cc2)CC1 [Compound 7f, 3-(Benzo[b]thiophen-3-yl)-5-(4-((4-methylpiperazin-1-yl)methyl)phenyl)-1H-pyrrolo[2,3-b]pyridine] | 68.84 | 73.51 | 338 | 68.3 | 68.3 | 23.2 | 4.89 | 81.1 | 76.5
3 | COCCNC(=O)Nc1cccc(-c2c[nH]c3ncc(-c4ccc(CN5CCN(C)CC5)cc4)cc23)c1 [Compound 7az, 1-(2-Methoxyethyl)-3-(3-(5-(4-((4-methylpiperazin-1-yl)methyl)phenyl)-1H-pyrrolo[2,3-b]pyridin-3-yl)phenyl)urea] | 79.28 | 80.78 | 2990 | 22.9 | 51.5 | 87.1 | 65 | 79 | 78.5
4 | CCOc1ccc(-c2c[nH]c3ncc(-c4ccc(CN5CCN(C)CC5)cc4)cc23)cn1 [Compound 7b, 3-(6-Ethoxypyridin-3-yl)-5-(4-((4-methylpiperazin-1-yl)methyl)phenyl)-1H-pyrrolo[2,3-b]pyridine] | 86.71 | 86.95 | 496 | 52.3 | 52.3 | 77.6 | 42.8 | 89.2 | 87.8
5 | CN1CCN(Cc2ccc(-c3cnc4[nH]cc(-c5cnn(C)c5)c4c3)cc2)CC1 [Compound 7s, 3-(1-Methyl-1H-pyrazol-4-yl)-5-(4-((4-methylpiperazin-1-yl)methyl)phenyl)-1H-pyrrolo[2,3-b]pyridine] | 90.97 | 90.45 | 2190 | 42.9 | 100 | 77.8 | 37 | 94.8 | 94.3
6 | CN1CCN(Cc2ccc(-c3cnc4[nH]cc(-c5ccc6cnn(C)c6c5)c4c3)cc2)CC1 [Compound 7ag, 1-Methyl-6-(5-(4-((4-methylpiperazin-1-yl)methyl)phenyl)-1H-pyrrolo[2,3-b]pyridin-3-yl)-1H-indazole] | 54.67 | 52.80 | 418 | 73.3 | 88 | 32.5 | 7.91 | 50.9 | 50
